Where two headings read alike, the source gives them in different places.
Experiments:
[1] = molecular target: cloned human mu opioid receptor (Homo sapiens (Human), UniProt P35372); experiment: cell-based
Experimental: (§1) The efficacy of the various PEG-opioid conjugates was measured by their ability to inhibit cAMP formation following receptor activation. Studies were conducted in CHO cells heterologously expressing the cloned human mu, kappa or delta opioid receptors. cAMP was measured using a cAMP HiRange homogenous time-resolved fluorescence assay (HTRF Assay), that is based on a competitive immunoassay principle (Cisbio, Cat.#62AM6PEC).
(§2) Briefly, suspensions of cells expressing either the mu, kappa or delta opioid receptors were prepared in buffer containing 0.5 mM isobutyl-methyl xanthine (IBMX). […] EC50 values were calculated for each compound from a sigmoidal dose-response plot of concentrations versus maximum response. To determine if the compounds behaved as full or partial agonists in the system, the maximal response at the highest tested concentrations of compounds were compared to that produced by a known full agonist.

[2] = Intravenous pharmacokinetics in Sprague-Dawley rats; details: IV 1 mg/kg, rats; for AUCall / AUCinf / CL / Cmax / MRTlast / T1/2(z) / Vss: hydroxycodone series, Mean ± SD
[3] = molecular target: recombinant human mu opioid receptor (Homo sapiens (Human), UniProt P35372); type: binding
Experimental: (§3) Radioligand displacement was measured using scintillation proximity assays (SPA).
(§4) Briefly, serial dilutions of the test compounds were placed in a 96-well plate to which were added SPA beads, membrane and radioligand. The assay conditions for each opioid receptor subtype are described in Table 10 below. The plates were incubated for 8 hours-overnight at room temperature, spun at 1000 rpm to pellet the SPA beads, and radioactivity was measured using the TopCount® microplate Scintillation counter. Specific binding at each concentration of test compound was calculated by subtracting the non-specific binding measured in the presence of excess cold ligand. IC50 values were obtained by non-linear regression of specific binding versus concentration curves and Ki values were calculated using Kd values that were experimentally pre-determined for each lot of membrane preparations.

[4] = molecular target: cloned human kappa opioid receptor (Homo sapiens (Human), UniProt P41145); type: cell-based
Experimental: as §1, §2

[5] = molecular target: recombinant human kappa opioid receptor (Homo sapiens (Human), UniProt P41145); type: binding
Experimental: as §3, §4

[6] = inhibition of cAMP formation, 3 μM forskolin, CHO cells
[7] = inhibition of cAMP formation, maximal response vs known full agonist
[8] = SPA, CHO-K1 membranes, [3H]DAMGO 6 nM

| Compound | AUCall [2] [ng·min/mL] | AUCinf [2] [ng·min/mL] | CL [2] [mL/min/kg] | Cmax [2] [ng/mL] | MRTlast [2] [min] | Vss [2] [L/kg] | KAPPA OPIOID RECEPTOR % max effect [4] [%] | EC50 [1] [µM] | MU OPIOID RECEPTOR % max effect [1] [%] | Ki [5] [µM] | Ki [3] [µM] | other results |
| --- | --- | --- | --- | --- | --- | --- | --- | --- | --- | --- | --- | --- |
| COCCOCCOCCOCCOCCOCCO[C@H]1CC[C@@]2(O)[C@H]3Cc4ccc(OC)c5c4[C@@]2(CCN3C)[C@H]1O5 [α-6-mPEG6-O-Hydroxycodone, α-6-mPEG6-O-hydroxycodone] | 12600 ± 2370 | 13100 ± 2390 | 77.9 ± 14.4 | 445 ± 83.6 | 47.7 ± 1.41 | 4.68 ± 0.938 |  |  |  |  |  | EC50 [1, 6]: 12.5 µM; MU OPIOID RECEPTOR % max effect [1, 7]: 102%; T1/2(z) [2]: 62.2 ± 5.17 min; Ki [3, 8]: 1.9 µM |
| COCCOCCOCCOCCOCCOCCOCCO[C@H]1CC[C@@]2(O)[C@H]3Cc4ccc(OC)c5c4[C@@]2(CCN3C)[C@H]1O5 [α-6-mPEG7-O-Hydroxycodone, α-6-mPEG7-O-oxycodone] | 14300 ± 583 | 15800 ± 728 | 63.3 ± 2.99 | 489 ± 26.5 | 54.3 ± 0.372 | 5.31 ± 0.139 |  |  |  |  |  | EC50 [1, 6]: 7.45 µM; MU OPIOID RECEPTOR % max effect [1, 7]: 101%; T1/2(z) [2]: 87.0 ± 3.25 min; Ki [3, 8]: 1.61 µM |
| COCCOCCOCCOCCOCCOCCOCCOCCOCCO[C@H]1CC[C@@]2(O)[C@H]3Cc4ccc(OC)c5c4[C@@]2(CCN3C)[C@H]1O5 [α-6-mPEG9-O-Hydroxycodone, α-6-mPEG9-O-hydroxycodone] | 16600 ± 2190 | 21000 ± 4230 | 48.9 ± 9.41 | 955 ± 149 | 52.7 ± 4.04 | 6.35 ± 0.349 |  |  |  |  |  | mean t1/2 value as multiple of that of the parent molecule [2]: 3 times |
| α-6-mPEG1-O-codeine |  |  |  |  |  |  | 51 | 8.57 | 80 | 54.7 | 1.82 |  |
| α-6-mPEG2-O-codeine |  |  |  |  |  |  | 59 | 5.15 | 75 | 22.6 | 1.38 | EC50 [4]: 40.1 µM |
| α-6-mPEG4-O-codeine |  |  |  |  |  |  |  | 22.1 | 99 | 97 | 2.89 |  |
| α-6-mPEG5-O-codeine |  |  |  |  |  |  | 60 |  |  | 59.1 |  |  |
| α-6-mPEG6-O-codeine |  |  |  |  |  |  | 21 | 97.4 | 80 | > 160 | 14.2 |  |
| α-6-mPEG7-O-codeine |  |  |  |  |  |  |  | 44.7 | 75 |  | 9.96 |  |
| α-6-mPEG9-O-codeine |  |  |  |  |  |  |  | 48.2 | 80 |  | 9.98 |  |

Reference: patent US9233167B2, “Oligomer-opioid agonist conjugates” (NEKTAR THERAPEUTICS, priority 2007, dated 2016)
